Where two headings read alike, the source gives them in different places.
Biological target: T1, PD-1/PD-L1 interaction (PD-1-Ig / PD-L1-His) (Homo sapiens, UniProt Q9NZQ7)
T1 construct: hPDL1(18-239)-TVMV-His; TVMV protease site linker (C); made in house; host or cells: HEK293T
Assay: PD-1/PD-L1 Homogenous Time-Resolved Fluorescence (HTRF) binding assay
Conditions: PD-L1-His 10 nM, PD-1-Ig 20 nM, read-out: Range or IC50
In short: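 Human PD-L1-His (10 nM final) was pre-incubated with inhibitor for 15 min, then PD-1-Ig (20 nM final) was added for a further 15 min in dPBS with 0.1% BSA and 0.05% Tween-20. Binding was detected by HTRF using Eu-cryptate anti-Ig (1 nM) and APC anti-His (20 nM).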

T1 sequence (Q9NZQ7 with tags, fused parts or gaps): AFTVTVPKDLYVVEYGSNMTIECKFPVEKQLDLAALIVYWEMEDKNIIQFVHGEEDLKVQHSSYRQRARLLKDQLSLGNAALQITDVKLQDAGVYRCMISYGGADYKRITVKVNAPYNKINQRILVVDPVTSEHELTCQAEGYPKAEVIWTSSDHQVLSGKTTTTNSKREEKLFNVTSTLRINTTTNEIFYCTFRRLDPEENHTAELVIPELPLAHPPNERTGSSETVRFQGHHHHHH

| Structure (SMILES) | IC50 (IC50 range class) | IC50 (numeric IC50) |
| --- | --- | --- |
| Cc1c(COc2cc(OCc3cncc(C#N)c3)c(CO)cc2Cl)cccc1-c1cccc(COc2cc(OCc3cncc(C#N)c3)c(CN[C@H](C(=O)O)[C@H](C)O)cc2Cl)c1C [Example 50230] | 0.04 to 20 nM |  |
| Cc1c(COc2cc(OCc3cncc(C#N)c3)c(CO)cc2Cl)cccc1-c1cccc(COc2cc(OCc3cncc(C#N)c3)c(CN[C@H](CO)CC(=O)O)cc2Cl)c1C [Example 50330] | 0.04 to 20 nM |  |
| Cc1c(COc2cc(OCc3cncc(C#N)c3)c(CO)cc2Cl)cccc1-c1cccc(COc2cc(OCc3cncc(C#N)c3)c(CN[C@@H](C(=O)O)[C@H](C)O)cc2Cl)c1C [Example 50250] | 0.04 to 20 nM |  |
| CCCN(CCO)CCCOc1cccc(-c2cccc(OCCCN3CC[C@@H](O)C3)c2C)c1C [Example 2053, (R)-1-(3-((3′-(3-((2-hydroxyethyl)(propyl)amino)propoxy)-2,2′-dimethyl-[1,1′-biphenyl]-3-yl)oxy)propyl)pyrrolidin-3-ol] | 90.1 to 1000 nM |  |
| Cc1c(OCCCN2CCN(C)C(=O)C2)cccc1-c1cccc(OCCCN2CC[C@@H](O)C2)c1C [Example 2036, (R)-4-(3-((3′-(3-(3-hydroxypyrrolidin-1-yl)propoxy)-2,2′-dimethyl-[1,1′-biphenyl]-3-yl)oxy)propyl)-1-methylpiperazin-2-one] | 90.1 to 1000 nM |  |
| Cc1c(COc2cc(OCc3cncc(C#N)c3)c(CN(C[C@H](O)CO)C(CO)CO)cc2Cl)cccc1-c1cccc(COc2cc(OCc3cncc(C#N)c3)c(CN(C[C@H](O)CO)C(CO)CO)cc2Cl)c1C [Example 2131, 5,5′-((((((2,2′-dimethyl-[1,1′-biphenyl]-3,3′-diyl)bis(methylene))bis(oxy))bis(4-chloro-6-(((1,3-dihydroxypropan-2-yl)((S)-2,3-dihydroxypropyl)amino)methyl)-3,1-phenylene))bis(oxy))bis(methylene))dinicotinonitrile] | 0.04 to 20 nM |  |
| Cc1c(COc2cc(OCc3cncc(C#N)c3)c(CNC[C@H](O)C(=O)O)cc2Cl)cccc1-c1cccc(COc2cc(OCc3cncc(C#N)c3)c(CNC[C@H](O)C(=O)O)cc2Cl)c1C [Example 40220] | 0.04 to 20 nM |  |
| Cc1c(COc2cc(OCc3cncc(C#N)c3)c(CO)cc2Cl)cccc1-c1cccc(COc2cc(OCc3cncc(C#N)c3)c(CNCC(O)CC(=O)O)cc2Cl)c1C (stereo not shown) [Example 50070] | 0.04 to 20 nM |  |
| C[C@](CO)(NCc1cc(Cl)c(OCc2cccc(-c3cccc(COc4cc(OCc5cncc(C#N)c5)c(CN[C@](C)(CO)C(=O)O)cc4Cl)c3Cl)c2Cl)cc1OCc1cncc(C#N)c1)C(=O)O [Example 41190] | 0.04 to 20 nM |  |
| Cc1c(COc2cc(OCc3cncc(C#N)c3)c(Cl)cc2Cl)cccc1-c1cccc(COc2cc(OCc3cncc(C#N)c3)c(CN[C@H](C(=O)O)[C@@H](C)[C@H](C)O)cc2Cl)c1C [Example 70050] | 90.1 to 1000 nM |  |
| Cc1c(OCCCNCCCn2ccnc2)cccc1-c1cccc(OCCCN2CC[C@@H](O)C2)c1C [Example 2020, (R)-1-(3-((3′-(3-((3-(1H-imidazol-1-yl)propyl)amino)propoxy)-2,2′-dimethyl-[1,1′-biphenyl]-3-yl)oxy)propyl)pyrrolidin-3-ol] | 0.04 to 20 nM |  |
| Cc1c(COc2cc(OCc3cncc(C#N)c3)c(CN3CCC[C@H]3C(=O)O)cc2Cl)cccc1-c1cccc(COc2cc(OCc3cncc(C#N)c3)c(CN3CCC[C@H]3C(=O)O)cc2Cl)c1C [Example 40350] | 0.04 to 20 nM |  |
| Cc1c(COc2cc(OCc3cncc(C#N)c3)c(CO)cc2Cl)cccc1-c1cccc(COc2cc(OCc3cncc(C#N)c3)c(CN[C@@](C)(CO)C(=O)O)cc2Cl)c1C [Example 2124, (S)-2-((5-chloro-4-((3′-((2-chloro-5-((5-cyanopyridin-3-yl)methoxy)-4-(hydroxymethyl)phenoxy)methyl)-2,2′-dimethyl-[1,1′-biphenyl]-3-yl)methoxy)-2-((5-cyanopyridin-3-yl)methoxy)benzyl)amino)-3-hydroxy-2-methylpropanoic acid] | 0.04 to 20 nM |  |
| COc1cc(OCc2cccc(-c3cccc(COc4cc(OC)c(CNC(CO)CO)cc4Cl)c3C)c2C)c(Cl)cc1CNC(CO)CO [Example 2122, 2,2′-((((((2,2′-dimethyl-[1,1′-biphenyl]-3,3′-diyl)bis(methylene))bis(oxy))bis(5-chloro-2-methoxy-4,1-phenylene))bis(methylene))bis(azanediyl))bis(propane-1,3-diol)] | 0.04 to 20 nM |  |
| Cc1c(COc2cc(OCc3cncc(C#N)c3)c(CNC(C)(CO)CO)cc2Cl)cccc1-c1cccc(COc2cc(OCc3cncc(C#N)c3)c(CNC(C)(CO)CO)cc2Cl)c1C [Example 40250] | 0.04 to 20 nM |  |
| Cc1c(OCCCN[C@@H](Cc2ccncc2)C(=O)O)cccc1-c1cccc(OCCCN2CC[C@@H](O)C2)c1C [Example 2037, (S)-2-((3-((3′-(3-((R)-3-hydroxypyrrolidin-1-yl)propoxy)-2,2′-dimethyl-[1,1′-biphenyl]-3-yl)oxy)propyl)amino)-3-(pyridin-4-yl)propanoic acid] | 90.1 to 1000 nM |  |
| Cc1c(COc2cc(OCc3ccc(-n4cccn4)nc3)c(CN(C)C(C)(C)C(=O)O)cc2Cl)cccc1-c1cccc(COc2cc(OCc3ccc(-n4cccn4)nc3)c(CN(C)C(C)(C)C(=O)O)cc2Cl)c1C [Example 5024, 2,2′-((((((2,2′-dimethyl-[1,1′-biphenyl]-3,3′-diyl)bis(methylene))bis(oxy))bis(2-((6-(1H-pyrazol-1-yl)pyridin-3-yl)methoxy)-5-chloro-4,1-phenylene))bis(methylene))bis(methylazanediyl))bis(2-methylpropanoic acid)] | 0.04 to 20 nM |  |
| COC(=O)[C@@H](NCc1cc(Cl)c(OCc2cccc(-c3cccc(COc4cc(OCc5cncc(C#N)c5)c(CN[C@H](C(=O)OC)[C@H](C)O)cc4Cl)c3C)c2C)cc1OCc1cncc(C#N)c1)[C@H](C)O [Example 40900] | 1000 to 10000 nM |  |

Now from value to molecule:

| IC50 (IC50 range class) | IC50 (numeric IC50) | Structure (SMILES) |
| --- | --- | --- |
| 0.04 to 20 nM |  | Cc1c(COc2cc(OCc3cncc(C#N)c3)c(CN[C@@H](C(=O)O)[C@H](C)O)cc2Cl)cccc1-c1cccc(COc2cc(OCc3cncc(C#N)c3)c(CN[C@@H](C(=O)O)[C@H](C)O)cc2Cl)c1C [Example 40880] |
|  | 168 nM | COC(=O)[C@@H](NCc1cc(Cl)c(OCc2cccc(-c3cccc(COc4cc(OCc5cncc(C#N)c5)c(CN[C@H](C(=O)OC)[C@@H](C)OC(C)(C)C)cc4Cl)c3C)c2C)cc1OCc1cncc(C#N)c1)[C@@H](C)OC(C)(C)C [Example 40950] |
| 20.1 to 90 nM |  | Cc1c(COc2cc(OCc3cc(F)cc(F)c3)c(CN(C)[C@@H](CO)C(=O)O)cc2Cl)cccc1-c1cccc(COc2cc(OCc3cc(F)cc(F)c3)c(CN(C)[C@@H](CO)C(=O)O)cc2Cl)c1C [Example 5013, (2S,2′S)-2,2′-((((((2,2′-dimethyl-[1,1′-biphenyl]-3,3′-diyl)bis(methylene))bis(oxy))bis(5-chloro-2-((3,5-difluorobenzyl)oxy)-4,1-phenylene))bis(methylene))bis(methylazanediyl))bis(3-hydroxypropanoic acid)] |
| 0.04 to 20 nM |  | Cc1c(OCCCN(C)CC(O)CO)cccc1-c1cccc(OCCCN(C)CC(O)CO)c1C (mixture of isomers) [Example 2078, 3,3′-((((2,2′-dimethyl-[1,1′-biphenyl]-3,3′-diyl)bis(oxy))bis(propane-3,1-diyl))bis(methylazanediyl))bis(propane-1,2-diol)] |
| 1000 to 10000 nM |  | Cc1c(NC(=O)NCCN2CC[C@@H](O)C2)cccc1-c1cccc(OCCCN2CC[C@@H](O)C2)c1C [Example 3017, 1-(2-((R)-3-hydroxypyrrolidin-1-yl)ethyl)-3-(3′-(3-((R)-3-hydroxypyrrolidin-1-yl)propoxy)-2,2′-dimethyl-[1,1′-biphenyl]-3-yl)urea] |
| 20.1 to 90 nM |  | Cc1c(COc2cc(OCc3cncc(C#N)c3)c(CO)cc2Cl)cccc1-c1cccc(COc2cc(OCc3cncc(C#N)c3)c(CN3CC[C@@H](O)C3)cc2Cl)c1C [Example 2126, (R)-5-((4-chloro-5-((3′-((2-chloro-5-((5-cyanopyridin-3-yl)methoxy)-4-((3-hydroxypyrrolidin-1-yl)methyl)phenoxy)methyl)-2,2′-dimethyl-[1,1′-biphenyl]-3-yl)methoxy)-2-(hydroxymethyl)phenoxy)methyl)nicotinonitrile] |
| 90.1 to 1000 nM |  | N#Cc1cncc(COc2cc(OCc3cccc(-c4cccc(COc5cc(OCc6cncc(C#N)c6)c(C(=O)NC6COC6)cc5Cl)c4Cl)c3Cl)c(Cl)cc2C(=O)O)c1 [Example 90050] |
| 20.1 to 90 nM |  | Cc1c(OCCCNCCCO)cccc1-c1cccc(OCCCN2CC[C@@H](O)C2)c1C [Example 2042, (R)-1-(3-((3′-(3-((3-hydroxypropyl)amino)propoxy)-2,2′-dimethyl-[1,1′-biphenyl]-3-yl)oxy)propyl)pyrrolidin-3-ol] |
| 1000 to 10000 nM |  | Cc1c(OCCCN2CC[C@@H](O)C2)cccc1-c1cccc(OCc2cccc(N)c2)c1C [Example 3033, (R)-1-(3-((3′-((3-aminobenzyl)oxy)-2,2′-dimethyl-[1,1′-biphenyl]-3-yl)oxy)propyl)pyrrolidin-3-ol] |
|  | 115 nM | N#Cc1cncc(COc2cc(OCc3cccc(-c4cccc(COc5cc(OCc6cncc(C#N)c6)c(CN6CCC(O)(C(=O)O)CC6)cc5Cl)c4)c3)c(Cl)cc2CO)c1 [Example 50040] |
| 20.1 to 90 nM |  | Cc1c(OCCCN(C)CCC(N)=O)cccc1-c1cccc(OCCCN2CC[C@@H](O)C2)c1C [Example 2054, (R)-3-((3-((3′-(3-(3-hydroxypyrrolidin-1-yl)propoxy)-2,2′-dimethyl-[1,1′-biphenyl]-3-yl)oxy)propyl)(methyl)amino)propanamide] |
| 0.04 to 20 nM |  | CC(CO)(NCc1cc(Cl)c(OCc2cccc(-c3cccc(COc4cc(OCc5cncc(C#N)c5)c(CNC(C)(CO)C(=O)O)cc4Cl)c3Cl)c2Cl)cc1OCc1cncc(C#N)c1)C(=O)O (stereo not shown) [Example 41200] |
| 0.04 to 20 nM |  | CO[C@H](C)[C@H](NCc1cc(Cl)c(OCc2cccc(-c3cccc(COc4cc(OCc5cncc(C#N)c5)c(CN[C@H](C(=O)O)[C@@H](C)OC)cc4Cl)c3C)c2C)cc1OCc1cncc(C#N)c1)C(=O)O [Example 40940] |

From patent US10144706B2 (BRISTOL-MYERS SQUIBB COMPANY, priority 2016, dated 2018)
